Measured values published in patent US20240246941A1, “SUBSTITUTED 4-(3-AMINOPROP-1-YL)AMINOQUINOLINE ANALOGS AS MODULATORS OF MELANOMA-ASSOCIATED ANTIGEN 11 UBIQUITIN LIGASE” (ST. JUDE CHILDREN'S RESEARCH HOSPITAL, INC., priority 2020, published 2024).

Each compound was assayed against MAGE-A11:PCF11 (Homo sapiens (Human), UniProt P43364) (assay: TR-FRET single point screening at 15 μM). Conditions: single point TR-FRET screening at 15 μM against MAGE-A11:PCF11.
Type: binding
Parameters: unit not given here
From the text: TR-FRET Assays and High-throughput Screen. Terbium-anti-GST antibody, 1 M Tris pH 7.5 1 M MgCl2 and 1 M DTT were purchased from Invitrogen (Carlsbad, CA), BSA was purchased from Sigma (St. Louis, MO). Dimethyl sulfoxide (DMSO) was purchased from Fisher Scientific (Pittsburgh, PA). Black 384-well low volume plates and 384-well polypropylene compound plates were purchased from Corning Incorporated (Tewksbury, MA). The St. Jude FDA drug and Bioactive library (11,293 chemicals), Drug-like library (10,073 chemicals) and Lead-like library (10,041 chemicals) were custom assembled and purchased from commercial sources including Sigma, Microsource (Gaylordsville, CT), selleckchem (Houston, TX), ChemDiv (San Diego, CA), ChemBridge (San Diego, CA), Enamine (Monmouth Jct., NJ), and Life Chemicals (Niagara-on-the-Lake, ON, Canada). They were arrayed (10 mM in DMSO) in 384-well polypropylene compound plates with columns 1, 2, 13 and 14 empty which were reserved for controls.
The TR-FRET assay buffer with a formula of 50 mM Tris pH 7.5, 20 mM MgCl2, 0.1 mg/ml BSA and 1 mM DTT was freshly prepared before each experiment. All TR-FRET assays were performed in black 384-well plates with 20 μl/well assay volume in the TR-FRET assay buffer at room temperature (approximately 25° C.). All peptides or compounds were solubilized in DMSO. To test the competitive activity of peptides or compounds against the interaction between GST-MAGEA11 MHD and FAM-PCF11_4 peptide, 10 μl/well peptide or compound at specified concentration was dispensed into a black 384-well low volume plate, followed by 5 μl/well FAM-PCF11_4 (800 nM), 5 μl/well Tb-anti-GST (20 nM) and GST-MAGEA11 MHD (20 nM). The assay components in each well was then mixed by shaking the plate on an IKA MTS 2/4 digital microtiter plate shaker (IKA Works; Wilmington, NC, USA) at 900 RPM for 1 minute. The plate was further centrifuged in an Eppendorf 5810 centrifuge with an A-4-62 swing-bucket rotor (Eppendorf AG, Hamburg, Germany) at 201 g (1000 rpm) for 30 seconds. The plate was then incubated for 90 min with a lid to avoid light exposure to the assay components. After incubation, the fluorescent emission signals at 520 nm and 490 nm channels of individual wells were measured with a PHERAstar FS plate reader (BMG Labtech; Durham, NC, USA) by using a 340 nm excitation filter, 100 μs delay time, and 200 μs integration time. The TR-FRET fluorescence emission ratio (TR-FRET signal) for each well was presented as 10 000×520 nm/490 nm, which was used directly for curve fitting, or further converted to % Inhibition based on the respective positive and negative controls. The graphic software GraphPad Prism 4.81 (GraphPad Software; La Jolla, CA, USA) was used to generate curves and derive IC50 values of tested peptides or compounds, if applicable.
TR-FRET screen for identifying MAGEA11 small molecule inhibitors was performed as follows. The primary one-concentration screening and subsequent 10 or 20-concentration dose response tests were accomplished with an automated High Throughput Screening system (HighRes Biosolutions, Beverly, MA)^30. In the primary screening, 15 μl/well FAM-PCF11_4 (267 nM) was first dispensed with a Multidrop Combi Reagent Dispenser (Thermo Fisher Scientific, Waltham, MA) to black 384-well low volume assay plates. The plates were spun down with a Velocity11 VSpin microplate centrifuge (Agilent Technologies, Santa Clara, CA). 30 nl/well of 10 mM compound/DMSO solutions, or DMSO alone, were transferred from compound plates (the St. Jude FDA drug and bioactive library, Drug-like library and Lead-like library) or a control plate to the assay plates with a Pin Tool (V&P Scientific, San Diego, CA). The compounds were arrayed in columns 3 to 12 and columns 15 to 24 of compound plates. The controls were arrayed in columns 1, 2, 13 and 14 of a compound plate. […]

MAGE-A11:PCF11, sequence (P43364 218-429): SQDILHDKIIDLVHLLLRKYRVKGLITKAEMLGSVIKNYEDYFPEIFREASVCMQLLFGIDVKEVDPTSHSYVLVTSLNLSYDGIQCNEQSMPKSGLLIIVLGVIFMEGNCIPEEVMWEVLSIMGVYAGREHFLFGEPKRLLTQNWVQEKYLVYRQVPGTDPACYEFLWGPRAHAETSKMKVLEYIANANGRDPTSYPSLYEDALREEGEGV

Row | Compound | TR-FRET signal
1 | CCCN(CCCNc1c2ccc(Cl)cc2nc2ccc(OC)cc12)Cc1ccc[nH]1 [SJ000520923] | −271
2 | Cc1cc(N2CCN(CC(O)COCC(C)C)CC2)c2ccccc2n1 (stereo not drawn) [SJ000227654] | −3.251
3 | Clc1ccc2c(NCCCCN(Cc3ccccc3)Cc3ccsc3)ccnc2c1 [SJ000312689] | 16.3
4 | Cc1ccc2ncc(S(=O)(=O)c3ccccc3)c(N3CCN(C)CC3)c2c1 [SJ000083945] | −8.419
5 | Cc1ccc2ncc(S(=O)(=O)c3ccccc3)c(N3CCN(Cc4ccccc4)CC3)c2c1 [SJ000247256] | 2.673
6 | CCCCN(CCCC)CC(=O)Nc1c2c(nc3ccccc13)N(C)CC2 [SJ000331523] | 2.503
7 | COc1ccc(N2CCN(c3c(S(=O)(=O)c4ccccc4)cnc4ccc(C)cc34)CC2)cc1 [SJ000083981] | −37.97
8 | COc1cccc(F)c1CN(CCCCNc1ccnc2cc(Cl)ccc12)Cc1ccccc1 [SJ000357501] | 5.094
9 | COc1ccccc1CN1CCC(Nc2ccnc3cc(Cl)ccc23)CC1 [SJ000523097] | 8.596
10 | CCCCCN(CCCCC)CC(=O)Nc1c2c(nc3ccccc13)CCC2 [SJ000487033] | −68.07
11 | COc1ccc(N2CCN(c3c(S(=O)(=O)c4ccc(C)c(C)c4)cnc4ccc(F)cc34)CC2)cc1 [SJ000117073] | −13.26
12 | O=S(=O)(c1ccc(F)cc1)N1CCN(c2ccnc3cc(Cl)ccc23)CC1 [SJ000203833] | −50.64
13 | FC(F)(F)Oc1ccccc1CN(CCCCNc1ccnc2cc(Cl)ccc12)Cc1ccccc1 [SJ000520459] | 30.86
14 | CCCCCN(CCC)CCCNc1c2ccc(Cl)cc2nc2ccc(OC)cc12 [SJ000520941] | −210.3
15 | Cc1ccc2ncc(S(=O)(=O)c3ccccc3)c(N3CCN(c4ccccc4)CC3)c2c1 [SJ000083973] | −29.7
16 | CCc1ccc(S(=O)(=O)c2cnc3ccccc3c2N2CCN(c3ccc(OC)cc3)CC2)cc1 [SJ000117074] | −11.2
17 | CCc1ccc2ncc(S(=O)(=O)c3ccc(OC)cc3)c(N3CCN(c4ccccc4)CC3)c2c1 [SJ000117056] | −2.791
18 | CN1CCN(c2c(S(=O)(=O)c3ccc(Cl)cc3)cnc3ccccc23)CC1 [SJ000247306] | −10.14
19 | CCCN(CCCNc1c2ccc(Cl)cc2nc2ccc(OC)cc12)CC(C)CC (stereo not drawn) [SJ000520959] | −264.8
20 | CCCN(CCCCNc1ccnc2cc(Cl)ccc12)Cc1ccoc1 [SJ000311200] | 12.31
21 | COc1ccc2ncc(S(=O)(=O)c3ccc(C)cc3)c(N3CCN(Cc4ccccc4)CC3)c2c1 [SJ000117085] | −82.22
22 | COc1cccc(CN2CCC(Nc3ccnc4cc(Cl)ccc34)CC2)c1O [SJ000357525] | 9.995
23 | Clc1ccc2c(NCCCCN(Cc3ccccc3)Cc3cccnc3Br)ccnc2c1 [SJ000520453] | 2.377
24 | CCN(CCO)CCCC(C)Nc1ccnc2cc(Cl)ccc12 (stereo not drawn) [SJ000286026] | 3.702

Same assay, conditions: single point TR-FRET screening of quinoline compounds against MAGE-A11:PCF11; 15 μM

Row | Compound | TR-FRET signal
25 | CCCN(CCCNc1ccnc2cc(C(F)(F)F)ccc12)CC1CCOC1 (stereo not drawn) [SJ000575190] | 1.787
26 | CCCN(CCCNc1ccnc2cc(Cl)ccc12)Cc1ccc(-c2ccccc2)cc1 [SJ000523039] | 30.23
27 | COc1ccc(F)cc1CN(CCCNc1ccnc2cc(Cl)ccc12)Cc1ccccc1 [SJ000357495] | 6.683
28 | CCCN(CCCNc1ccnc2cc(Cl)ccc12)Cc1scnc1C [SJ000523005] | 11.85
29 | CCCN(CCCNc1ccnc2cc(C(F)(F)F)ccc12)Cc1csc2ccccc12 [SJ000520483] | 19.45
30 | CCCN(CCC)CCCNc1ccnc2cc(C(F)(F)F)ccc12 [SJ000361250] | 15.68
31 | Clc1ccc2c(NCCCN(Cc3ccccc3)CC3CCCCC3)ccnc2c1 [SJ000361171] | 28.21
32 | CCCN(CCCNc1c2ccc(Cl)cc2nc2ccc(OC)cc12)Cc1cccc(OC)c1O [SJ000520930] | −81.96
33 | CCCN(CCCNc1ccnc2cc(Cl)ccc12)Cc1ccccc1OC(F)(F)F [SJ000357595] | −21.87
34 | Cc1ccc(CNCCCNc2ccnc3cc(Cl)ccc23)o1 [SJ000311326] | 10.2
35 | FC(F)(F)c1ccc2c(NCCCNCc3csc4ccccc34)ccnc2c1 [SJ000521061] | 41.86
36 | CCCN(CCCNc1ccnc2cc(Cl)ccc12)Cc1cccc2c1OCO2 [SJ000357594] | 18.14
37 | CCCN(CCCNc1c2ccc(Cl)cc2nc2ccc(OC)cc12)CC(C)C [SJ000575150] | −21.37
38 | CCCN(CCCNc1ccnc2cc(C(F)(F)F)ccc12)Cc1ccncc1 [SJ000361251] | 17.49
39 | COC(=O)CCCCCNCCCNc1ccnc2cc(Cl)ccc12 [SJ000521021] | 39.12
40 | FC(F)(F)Oc1cccc(CN(CCCNc2ccnc3cc(Cl)ccc23)Cc2ccccc2)c1 [SJ000520464] | 27.78
41 | CCOC(=O)c1cnc2c(C(F)(F)F)cccc2c1NCCCN1CCOCC1 [SJ000131358] | 10.06
42 | CCCCCNCCCNc1ccnc2cc(Cl)ccc12 [SJ000523057] | 25.82

Row | Compound | TR-FRET signal
43 | CCCN(CCCNc1ccnc2cc(Cl)ccc12)Cc1ccc(-c2ccccc2[N+](=O)[O-])o1 [SJ000523044] | 9.266
44 | CCC(C)CNCCCNc1ccnc2cc(C(F)(F)F)ccc12 (stereo not drawn) [SJ000361112] | 18.47
45 | CCCN(CCCNc1ccnc2cc(C(F)(F)F)ccc12)CCCc1ccccc1 [SJ000523080] | 28
46 | Clc1ccc2c(NCCCN(Cc3ccccc3)Cc3ccncc3)ccnc2c1 [SJ000312679] | −5.573
47 | CCOC(=O)c1cnc2ccc(OCC)cc2c1NCCCN1CCOCC1.Cl [SJ000279525] | 5.532
48 | c1ccc(CCc2ccc3c(NCCCNCc4ccco4)ccnc3c2)cc1 [SJ000311254] | 15.95
49 | COc1ccccc1Oc1ccc2c(NCCCNCc3ccco3)ccnc2c1 [SJ000311210] | 24.56
50 | CCCN(CCCNc1ccnc2cc(Cl)ccc12)Cc1ccc2ccccc2c1 [SJ000523040] | 32.85
51 | Clc1ccc(CN(CCCNc2ccnc3cc(Cl)ccc23)Cc2ccccc2)c(Cl)c1 [SJ000361184] | 25.5
52 | Cc1cccc(CN(CCCNc2ccnc3cc(Cl)ccc23)Cc2ccccc2)c1 [SJ000361183] | 6.02
53 | CCCN(CCCNc1ccnc2cc(Cl)ccc12)Cc1ccccc1 [SJ000357431] | 19.14
54 | CCCN(CCCNc1ccnc2cc(C(F)(F)F)ccc12)CCOCc1ccccc1 [SJ000521011] | 25.82
55 | COc1ccc2nc3cc(Cl)ccc3c(NCCCNCc3ccccc3N)c2c1 [SJ000523031] | −57.15
56 | Clc1ccc2c(NCCCNCc3cncc(Br)c3)ccnc2c1 [SJ000521037] | 7.014
57 | CCOC(=O)c1cnc2c(C)cccc2c1NCCCN1CCOCC1 [SJ000279636] | 3.353
58 | CCCN(CCCNc1ccnc2cc(Cl)ccc12)Cc1c2ccccc2cc2ccccc12 [SJ000522762] | 15.49
59 | CCCN(CCCNc1ccnc2cc(C(F)(F)F)ccc12)Cc1ccccc1OC [SJ000523072] | 32.61
60 | Cc1ccc(CN(CCCNc2ccnc3cc(Cl)ccc23)Cc2ccccc2)o1 [SJ000312669] | 2.84
